Test results published in article PMC5218480 (PLoS ONE, 2017).

System: MV-4-11 cells
Assay: Gene expression microarray analysis (Affymetrix PrimeView) and GSEA
Format: cell-based, human
Set-up: RFU PODN (11730768_x_at) / Fold change /veh PODN (11730768_x_at) / RFU LINC00158 (11744669_a_at) / Fold change /veh LINC00158 (11744669_a_at) / RFU DUSP10 (11751237_a_at) / Fold change /veh DUSP10 (11751237_a_at) / RFU ID3 (11757404_x_at) / Fold change /veh ID3 (11757404_x_at) / RFU PLEKHG5 (11737974_s_at) / Fold change /veh PLEKHG5 (11737974_s_at) / RFU LRRC4B (11730491_at) / Fold change /veh LRRC4B (11730491_at) / RFU GIMAP4 (11747438_a_at) / Fold change /veh GIMAP4 (11747438_a_at) / RFU KRT8 (11758183_x_at) / Fold change /veh KRT8 (11758183_x_at) / RFU CNN1 (11734310_a_at) / Fold change /veh CNN1 (11734310_a_at) / RFU VPS37D (11726825_at) / Fold change /veh VPS37D (11726825_at) / RFU C10orf10 (11716522_x_at) / Fold change /veh C10orf10 (11716522_x_at) / RFU KIR2DL2 /// KIR2DL4 /// KIR2DL5A /// KIR2DL5B /// KIR2DS1 /// KIR2DS2 /// KIR2DS3 /// KIR2DS4 /// KIR3DL3 /// KIR3DL3 /// KIR3DS1 (11738374_at) / Fold change /veh KIR2DL2 /// KIR2DL4 /// KIR2DL5A /// KIR2DL5B /// KIR2DS1 /// KIR2DS2 /// KIR2DS3 /// KIR2DS4 /// KIR3DL3 /// KIR3DL3 /// KIR3DS1 (11738374_at) / RFU C1QL1 (11718748_at) / Fold change /veh C1QL1 (11718748_at) / RFU TMPRSS4 (11747572_a_at) / Fold change /veh TMPRSS4 (11747572_a_at) / RFU HAMP (11756126_x_at) / Fold change /veh HAMP (11756126_x_at) / RFU RNFT2 (11725882_a_at) / Fold change /veh RNFT2 (11725882_a_at) / RFU NR4A2 (11747474_a_at) / Fold change /veh NR4A2 (11747474_a_at) / RFU ABCC12 (11746883_a_at) / Fold change /veh ABCC12 (11746883_a_at) / RFU TMEM136 (11760407_x_at) / Fold change /veh TMEM136 (11760407_x_at) / RFU CLDN22 /// WWC2 (11732394_at) / Fold change /veh CLDN22 /// WWC2 (11732394_at) / RFU HLA-DPB1 (11760878_x_at) / Fold change /veh HLA-DPB1 (11760878_x_at) / RFU SPINT1 (11716480_a_at) / Fold change /veh SPINT1 (11716480_a_at) / RFU GAP43 (11754022_s_at) / Fold change /veh GAP43 (11754022_s_at) / RFU A4GNT (11735810_at) / Fold change /veh A4GNT (11735810_at) / RFU PRB3 (11715151_x_at) / Fold change /veh PRB3 (11715151_x_at) / RFU TUBB4B (11761932_at) / Fold change /veh TUBB4B (11761932_at) / RFU CAPN14 (11732068_a_at) / Fold change /veh CAPN14 (11732068_a_at) / RFU TMCC2 (11721928_a_at) / Fold change /veh TMCC2 (11721928_a_at) / RFU IRGQ (11745062_a_at) / Fold change /veh IRGQ (11745062_a_at) / RFU FAM174B (11720279_a_at) / Fold change /veh FAM174B (11720279_a_at) / RFU TMPRSS4 (11748680_a_at) / Fold change /veh TMPRSS4 (11748680_a_at) / RFU FAM212B (11763350_a_at) / Fold change /veh FAM212B (11763350_a_at) / RFU PLEKHG5 (11743358_a_at) / Fold change /veh PLEKHG5 (11743358_a_at) / RFU ZSCAN30 (11745921_a_at) / Fold change /veh ZSCAN30 (11745921_a_at) / RFU CMKLR1 (11741424_a_at) / Fold change /veh CMKLR1 (11741424_a_at) / RFU LOC101060620 /// MAPK8IP1 (11723275_at) / Fold change /veh LOC101060620 /// MAPK8IP1 (11723275_at) / RFU SPTSSB (11747773_x_at) / Fold change /veh SPTSSB (11747773_x_at) / RFU PRSS12 (11739890_at) / Fold change /veh PRSS12 (11739890_at) / RFU BIN1 (11741810_x_at) / Fold change /veh BIN1 (11741810_x_at) / RFU WNT11 (11732464_a_at) / Fold change /veh WNT11 (11732464_a_at) / RFU C10orf10 (11716521_a_at) / Fold change /veh C10orf10 (11716521_a_at) / RFU C5orf56 (11738089_at) / Fold change /veh C5orf56 (11738089_at) / RFU CYB561 (11721691_x_at) / Fold change /veh CYB561 (11721691_x_at) / RFU ANKRD19P (11752326_a_at) / Fold change /veh ANKRD19P (11752326_a_at) / RFU OR2T12 /// OR2T33 /// OR2T8 (11738714_s_at) / Fold change /veh OR2T12 /// OR2T33 /// OR2T8 (11738714_s_at) / RFU VCAN (11748164_a_at) / Fold change /veh VCAN (11748164_a_at) / RFU JSRP1 (11732532_at) / Fold change /veh JSRP1 (11732532_at) / RFU KRTAP10-11 (11738290_x_at) / Fold change /veh KRTAP10-11 (11738290_x_at) / RFU MYO3A (11730013_a_at) / Fold change /veh MYO3A (11730013_a_at) / RFU EBF3 (11725865_a_at) / Fold change /veh EBF3 (11725865_a_at) / RFU CAMK2N1 (11719241_x_at) / Fold change /veh CAMK2N1 (11719241_x_at) / RFU C5orf56 (11738088_a_at) / Fold change /veh C5orf56 (11738088_a_at) / RFU OLFML3 (11715873_a_at) / Fold change /veh OLFML3 (11715873_a_at) / RFU LOC100653217 /// NTM (11731650_a_at) / Fold change /veh LOC100653217 /// NTM (11731650_a_at) / RFU MAPK11 (11762145_a_at) / Fold change /veh MAPK11 (11762145_a_at) / RFU FIZ1 (11724087_x_at) / Fold change /veh FIZ1 (11724087_x_at) / RFU OASL (11726364_x_at) / Fold change /veh OASL (11726364_x_at) / RFU SOX15 (11748057_x_at) / Fold change /veh SOX15 (11748057_x_at) / RFU CD79A (11719716_a_at) / Fold change /veh CD79A (11719716_a_at) / RFU HIST1H1D (11736915_at) / Fold change /veh HIST1H1D (11736915_at) / RFU CASKIN2 (11723855_a_at) / Fold change /veh CASKIN2 (11723855_a_at) / RFU LOC730098 (11760151_x_at) / Fold change /veh LOC730098 (11760151_x_at) / RFU OR4N2 (11742367_at) / Fold change /veh OR4N2 (11742367_at) / RFU PRRT2 (11749266_a_at) / Fold change /veh PRRT2 (11749266_a_at) / RFU SNX32 (11753110_a_at) / Fold change /veh SNX32 (11753110_a_at) / RFU CDHR5 (11726645_a_at) / Fold change /veh CDHR5 (11726645_a_at) / RFU RCAN1 (11760418_a_at) / Fold change /veh RCAN1 (11760418_a_at) / RFU FAM167A (11723789_a_at) / Fold change /veh FAM167A (11723789_a_at) / RFU FAM26E (11764081_at) / Fold change /veh FAM26E (11764081_at) / RFU ISYNA1 (11749810_s_at) / Fold change /veh ISYNA1 (11749810_s_at) / RFU ACY1 (11761880_at) / Fold change /veh ACY1 (11761880_at) / RFU 11764098_at / Fold change /veh 11764098_at / RFU SAMD14 (11745864_x_at) / Fold change /veh SAMD14 (11745864_x_at) / RFU NPB (11741838_a_at) / Fold change /veh NPB (11741838_a_at) / RFU TMPRSS6 (11731388_a_at) / Fold change /veh TMPRSS6 (11731388_a_at) / RFU KRTAP10-2 (11738614_at) / Fold change /veh KRTAP10-2 (11738614_at) / RFU ARHGAP8 /// PRR5-ARHGAP8 (11727945_x_at) / Fold change /veh ARHGAP8 /// PRR5-ARHGAP8 (11727945_x_at) / RFU KRTAP5-7 /// NADSYN1 (11734609_at) / Fold change /veh KRTAP5-7 /// NADSYN1 (11734609_at) / RFU RASL12 (11751679_a_at) / Fold change /veh RASL12 (11751679_a_at) / RFU CDKN2B (11736163_a_at) / Fold change /veh CDKN2B (11736163_a_at) / RFU PRF1 (11729649_at) / Fold change /veh PRF1 (11729649_at) / RFU, ZNF638 /// ZNF638-IT1 / Fold change vs veh, ZNF638 /// ZNF638-IT1 / RFU, PANK3 / Fold change vs veh, PANK3 / RFU, SH3YL1 / Fold change vs veh, SH3YL1 / RFU, ZEB2 / Fold change vs veh, ZEB2 / RFU, NRIP1 / Fold change vs veh, NRIP1 / RFU, PTTG1IP / Fold change vs veh, PTTG1IP / RFU, CAPN2 / Fold change vs veh, CAPN2 / RFU, MED14 / Fold change vs veh, MED14 / RFU, SNORA58 / Fold change vs veh, SNORA58 / RFU, C1orf63 / Fold change vs veh, C1orf63 / RFU, LRRFIP1 / Fold change vs veh, LRRFIP1 / RFU, NDUFAF7 / Fold change vs veh, NDUFAF7 / RFU, SLC12A2 / Fold change vs veh, SLC12A2 / RFU, IBTK / Fold change vs veh, IBTK / RFU, ESF1 / Fold change vs veh, ESF1 / Fold change vs veh, TMEM50B / RFU, TAOK1 / Fold change vs veh, TAOK1 / RFU, ACBD3 / Fold change vs veh, ACBD3 / RFU, TMA16 / Fold change vs veh, TMA16 / RFU, RWDD3 / Fold change vs veh, RWDD3 / RFU, BCAT1 / Fold change vs veh, BCAT1 / RFU, EDEM3 / Fold change vs veh, EDEM3 / RFU, TMEM33 / Fold change vs veh, TMEM33 / RFU, WDR75 / Fold change vs veh, WDR75 / RFU, AHCTF1 / Fold change vs veh, AHCTF1 / RFU, TFRC / Fold change vs veh, TFRC / RFU, ZDHHC17 / Fold change vs veh, ZDHHC17 / RFU, NOM1 / Fold change vs veh, NOM1 / RFU, ARL8B / Fold change vs veh, ARL8B / RFU, ZBTB11 / Fold change vs veh, ZBTB11 / RFU, TAMM41 / Fold change vs veh, TAMM41 / RFU, KIAA1704 /// LOC100996395 / Fold change vs veh, KIAA1704 /// LOC100996395 / RFU, ING1 / Fold change vs veh, ING1 / RFU, TRMT61B / Fold change vs veh, TRMT61B / RFU, FUBP3 / Fold change vs veh, FUBP3 / RFU, TP53 / Fold change vs veh, TP53 / RFU, TNKS2 / Fold change vs veh, TNKS2 / RFU, ZFP14 / Fold change vs veh, ZFP14 / RFU, ACTR2 / Fold change vs veh, ACTR2 / RFU, PPP3R1 / Fold change vs veh, PPP3R1 / RFU, PIK3R1 / Fold change vs veh, PIK3R1 / RFU, HNRNPA1 / Fold change vs veh, HNRNPA1 / RFU, RNF170 / Fold change vs veh, RNF170 / RFU, ZNF28 / Fold change vs veh, ZNF28 / RFU, RNGTT / Fold change vs veh, RNGTT / RFU, OGT / Fold change vs veh, OGT / RFU, BRD1 / Fold change vs veh, BRD1 / RFU, MARS / Fold change vs veh, MARS / RFU, ZNF655 / Fold change vs veh, ZNF655 / RFU, FAHD1 / Fold change vs veh, FAHD1 / RFU, BDP1 / Fold change vs veh, BDP1 / RFU, LRRCC1 / Fold change vs veh, LRRCC1 / RFU, ARID1A / Fold change vs veh, ARID1A / RFU, ZNF146 / Fold change vs veh, ZNF146 / RFU, ZNF330 / Fold change vs veh, ZNF330 / RFU, GPN3 / Fold change vs veh, GPN3 / RFU, C9orf123 / Fold change vs veh, C9orf123 / RFU, N4BP2L2 / Fold change vs veh, N4BP2L2 / RFU, ARFIP1 / Fold change vs veh, ARFIP1 / RFU, FAM179B / Fold change vs veh, FAM179B / RFU, BCL10 / Fold change vs veh, BCL10 / RFU, UHRF1BP1L / Fold change vs veh, UHRF1BP1L / RFU, BET1 / Fold change vs veh, BET1 / RFU, CNOT2 / Fold change vs veh, CNOT2 / RFU, ZNF268 / Fold change vs veh, ZNF268 / Fold change vs veh, ZNF507 / RFU, DGCR2 / Fold change vs veh, DGCR2 / RFU, WDSUB1 / Fold change vs veh, WDSUB1 / Fold change vs veh, HSP90B1 /// MIR3652 / RFU, ADSS / Fold change vs veh, ADSS / RFU, GK / Fold change vs veh, GK / RFU, ZNF148 / Fold change vs veh, ZNF148 / RFU, TAF9 / Fold change vs veh, TAF9 / RFU, SLC1A5 / Fold change vs veh, SLC1A5 / RFU, SLMO2 / Fold change vs veh, SLMO2 / RFU, ABCC4 / Fold change vs veh, ABCC4 / RFU, LOC101060439 /// RAP1B / Fold change vs veh, LOC101060439 /// RAP1B / RFU, RFX7 / Fold change vs veh, RFX7 / RFU, GTPBP10 / Fold change vs veh, GTPBP10 / RFU, CNEP1R1 / Fold change vs veh, CNEP1R1 / RFU, BIVM-ERCC5 /// ERCC5 / Fold change vs veh, BIVM-ERCC5 /// ERCC5 / RFU, ILF3 / Fold change vs veh, ILF3 / RFU 11762660_at / Fold change /veh 11762660_at / RFU VCAN (11757783_s_at) / Fold change /veh VCAN (11757783_s_at) / RFU DDX43 (11728927_at) / Fold change /veh DDX43 (11728927_at) / RFU KRT8 (11758188_x_at) / Fold change /veh KRT8 (11758188_x_at) / RFU NKD1 (11759106_at) / Fold change /veh NKD1 (11759106_at) / RFU SRD5A1 (11742802_a_at) / Fold change /veh SRD5A1 (11742802_a_at) / RFU TPSAB1 /// TPSB2 (11721975_s_at) / Fold change /veh TPSAB1 /// TPSB2 (11721975_s_at) / RFU GSTM3 (11746129_a_at) / Fold change /veh GSTM3 (11746129_a_at) / RFU IL23R (11737362_x_at) / Fold change /veh IL23R (11737362_x_at) / RFU TMEM51 (11727254_a_at) / Fold change /veh TMEM51 (11727254_a_at) / RFU PIWIL2 (11732686_x_at) / Fold change /veh PIWIL2 (11732686_x_at) / RFU ORM1 (11744905_x_at) / Fold change /veh ORM1 (11744905_x_at) / RFU CCDC152 (11743942_at) / Fold change /veh CCDC152 (11743942_at) / RFU ECM1 (11717891_a_at) / Fold change /veh ECM1 (11717891_a_at) / RFU IL23R (11748794_a_at) / Fold change /veh IL23R (11748794_a_at) / RFU TNFAIP8L3 (11732012_x_at) / Fold change /veh TNFAIP8L3 (11732012_x_at) / RFU MBOAT4 (11741988_at) / Fold change /veh MBOAT4 (11741988_at) / RFU 11764193_at / Fold change /veh 11764193_at / RFU TMEM53 (11763286_at) / Fold change /veh TMEM53 (11763286_at) / RFU MAGEB2 (11727129_at) / Fold change /veh MAGEB2 (11727129_at) / RFU TMEM200A (11744735_a_at) / Fold change /veh TMEM200A (11744735_a_at) / RFU CCDC152 (11751479_a_at) / Fold change /veh CCDC152 (11751479_a_at) / RFU FAM211A (11726209_a_at) / Fold change /veh FAM211A (11726209_a_at) / RFU RGS16 (11746705_a_at) / Fold change /veh RGS16 (11746705_a_at) / RFU VCAN (11755009_s_at) / Fold change /veh VCAN (11755009_s_at) / RFU RHOB (11743442_s_at) / Fold change /veh RHOB (11743442_s_at) / RFU RGS16 (11720943_a_at) / Fold change /veh RGS16 (11720943_a_at) / RFU RGS16 (11720944_at) / Fold change /veh RGS16 (11720944_at) / RFU, VPS4B / Fold change vs veh, VPS4B / RFU, CREB1 / Fold change vs veh, CREB1 / RFU, DNAJC13 / Fold change vs veh, DNAJC13 / RFU, GNAQ / Fold change vs veh, GNAQ / RFU, CDK5R1 / Fold change vs veh, CDK5R1 / RFU, ZRANB3 / Fold change vs veh, ZRANB3 / RFU, CUL4A / Fold change vs veh, CUL4A / RFU, CCNY / Fold change vs veh, CCNY / RFU, UFL1 / Fold change vs veh, UFL1 / RFU, COG3 / Fold change vs veh, COG3 / RFU, DIAPH2 / Fold change vs veh, DIAPH2 / RFU, SKA2 / Fold change vs veh, SKA2 / RFU, AFF3 / Fold change vs veh, AFF3 / RFU, LMF1 / Fold change vs veh, LMF1 / RFU, IPO11 / Fold change vs veh, IPO11 / RFU, DFFB / Fold change vs veh, DFFB / RFU, FOXP1 / Fold change vs veh, FOXP1 / RFU, CARD8 / Fold change vs veh, CARD8 / RFU, STRN3 / Fold change vs veh, STRN3 / RFU, ADK / Fold change vs veh, ADK / RFU, RASSF2 / Fold change vs veh, RASSF2 / RFU, WIPF1 / Fold change vs veh, WIPF1 / RFU, LARP1B / Fold change vs veh, LARP1B / RFU, RASA1 / Fold change vs veh, RASA1 / RFU, RB1 / Fold change vs veh, RB1 / RFU, PPFIA1 / Fold change vs veh, PPFIA1 / RFU, MAT2A / Fold change vs veh, MAT2A / RFU, CCT5 / Fold change vs veh, CCT5 / RFU, WDR92 / Fold change vs veh, WDR92 / RFU, CUX1 / Fold change vs veh, CUX1 / RFU, TTC7A / Fold change vs veh, TTC7A / RFU, TMEM135 / Fold change vs veh, TMEM135 / RFU, DEPTOR / Fold change vs veh, DEPTOR / RFU, CPM / Fold change vs veh, CPM / RFU, DNAJB6 / Fold change vs veh, DNAJB6 / RFU, CACNA2D3 / Fold change vs veh, CACNA2D3 / RFU, DTX4 / Fold change vs veh, DTX4 / RFU, TFCP2 / Fold change vs veh, TFCP2 / RFU, GMCL1 /// GMCL1P1 / Fold change vs veh, GMCL1 /// GMCL1P1 / RFU, AEBP2 / Fold change vs veh, AEBP2 / RFU, SNHG1 /// SNORD22 /// SNORD25 /// SNORD26 /// SNORD27 /// SNORD28 /// SNORD29 /// SNORD31 / Fold change vs veh, SNHG1 /// SNORD22 /// SNORD25 /// SNORD26 /// SNORD27 /// SNORD28 /// SNORD29 /// SNORD31 / Fold change (Aza/veh), C12orf56 (ProbeSet 11735607_a_at) / Fold change (ACY-1035/veh), C12orf56 (ProbeSet 11735607_a_at) / Fold change (Aza/veh), FGFR1OP (ProbeSet 11751329_s_at) / Fold change (ACY-1035/veh), FGFR1OP (ProbeSet 11751329_s_at) / Fold change (Aza/veh), VPS36 (ProbeSet 11739960_a_at) / Fold change (ACY-1035/veh), VPS36 (ProbeSet 11739960_a_at) / RFU SYPL1 (11715823_x_at) / Fold change /veh SYPL1 (11715823_x_at) / RFU IGFBP7 (11715501_s_at) / Fold change /veh IGFBP7 (11715501_s_at) / RFU REEP3 (11722064_at) / Fold change /veh REEP3 (11722064_at) / RFU IGLL1 (11728026_x_at) / Fold change /veh IGLL1 (11728026_x_at): dose or concentration left out as unconfirmed
Conditions: MV-4-11 cells, 48 hours

## Nc1ccc(-c2cccs2)cc1NC(=O)c1ccc2c(c1)cc(C1CC1)n2CCN1CCOCC1 [ACY-1035]
  Fold change /veh ISYNA1 (11749810_s_at): 0.96
